This note sets out measurements from PubChem BioAssay AID256 (DTP/NCI, 2004).

Where “and” joins values, the source holds several entries; their conditions need not be identical. Equal entries are not always repeated. Toxic doses and inconclusive results are not listed.

This test concerns CD2F1 mice, L1210 leukemia ip, survival T/C. As to the kind of experiment: NCI In Vivo Anticancer Drug Screen. Data for tumor model L1210 Leukemia (intraperitoneal) in CD2F1 (CDF1) mice. To be noted: higher = longer survival. The gist of the method:
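Implant tumor; dose compound or vehicle; measure endpoint in both groups; report treated divided by control.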

Setting [1] is: endpoint: mean survival time, dose: 100.0 mg/kg/injection, schedule: Q01DX001 (ip), vehicle: saline.
Where [2] appears, read: endpoint: mean survival time, dose: 200.0 mg/kg/injection, schedule: Q01DX001 (ip), vehicle: saline.
[3] abbreviates: endpoint: mean survival time, dose: 400.0 mg/kg/injection, schedule: Q01DX001 (ip), vehicle: saline.
Setting [4] is: endpoint: mean survival time, dose: 50.0 mg/kg/injection, schedule: Q01DX009 (ip), vehicle: saline.
[5] abbreviates: endpoint: mean survival time, dose: 100.0 mg/kg/injection, schedule: Q01DX009 (ip), vehicle: saline.
The mark [6] stands for this setting: endpoint: mean survival time, dose: 100.0 mg/kg/injection, schedule: Q04DX003 (ip), vehicle: saline with Tween-80.
Setting [7] is: endpoint: mean survival time, dose: 200.0 mg/kg/injection, schedule: Q04DX003 (ip), vehicle: saline with Tween-80.
Where [8] appears, read: endpoint: mean survival time, dose: 400.0 mg/kg/injection, schedule: Q04DX003 (ip), vehicle: saline with Tween-80.
[9] abbreviates: endpoint: mean survival time, dose: 100.0 mg/kg/injection, schedule: Q04DX002 (ip), vehicle: saline with Tween-80.
Where [10] appears, read: endpoint: mean survival time, dose: 200.0 mg/kg/injection, schedule: Q04DX002 (ip), vehicle: saline with Tween-80.
The mark [11] stands for this setting: endpoint: mean survival time, dose: 400.0 mg/kg/injection, schedule: Q04DX002 (ip), vehicle: saline with Tween-80.
Where [12] appears, read: endpoint: mean survival time, dose: 100.0 mg/kg/injection, schedule: Q01DX001 (ip), vehicle: saline with Tween-80.
[13] abbreviates: endpoint: mean survival time, dose: 200.0 mg/kg/injection, schedule: Q01DX001 (ip), vehicle: saline with Tween-80.
Where [14] appears, read: endpoint: mean survival time, dose: 400.0 mg/kg/injection, schedule: Q01DX001 (ip), vehicle: saline with Tween-80.
Where [15] appears, read: endpoint: mean survival time, dose: 25.0 mg/kg/injection, schedule: Q04DX002 (ip), vehicle: saline with Tween-80.

As to `Nc1ccc(/C=C/c2ccnc3ccccc23)cc1`, the T/C reads like this: (endpoint: mean survival time, dose: 4.0 mg/kg/injection, schedule: Q01DX Z (ip), vehicle: saline) 104 % of control; (endpoint: mean survival time, dose: 8.0 mg/kg/injection, schedule: Q01DX Z (ip), vehicle: saline) 101 % of control; (endpoint: mean survival time, dose: 16.0 mg/kg/injection, schedule: Q01DX Z (ip), vehicle: saline) 98 % of control.
Regarding `COc1ccc(SSc2ccc(OC)cc2)cc1`, the T/C under setting [1] is 100 % of control, the T/C under setting [2] is 103 % of control and the T/C under setting [3] is 97 % of control.
Take `COc1ccc(CCN)cc1OC`: the T/C was 94 % of control under setting [4]; 94 % of control under setting [5]; 97 % of control under setting [6]; 97 % of control (endpoint: mean survival time, dose: 200.0 mg/kg/injection, schedule: Q01DX009 (ip), vehicle: saline); 93 % of control under setting [7].
With `O=C1C=C(O)c2cc(Br)ccc2C1=O`, the T/C was 102 % of control under setting [1], 98 % of control under setting [2] and 98 % of control under setting [3].
On to `O=C1OC(c2ccccc2)(c2ccccc2)c2ccc3ccccc3c21`, for which the T/C is, setting by setting: under setting [6], 96 % of control; under setting [7], 93 % of control; under setting [8], 90 % of control.
For `Nc1cccc(OCc2nc(N)nc(N)c2-c2ccc(Cl)cc2)c1`, the T/C by setting is: (endpoint: mean survival time, dose: 37.5 mg/kg/injection, schedule: Q01DX001 (ip), vehicle: saline) 96 % of control; (endpoint: mean survival time, dose: 75.0 mg/kg/injection, schedule: Q01DX001 (ip), vehicle: saline) 100 % of control; (endpoint: mean survival time, dose: 150.0 mg/kg/injection, schedule: Q01DX001 (ip), vehicle: saline) 91 % of control.
For the molecule `O=C(CC(O)(C(F)(F)F)C(F)(F)F)c1ccc(Br)cc1`, the T/C by setting is: (endpoint: mean survival time, dose: 100.0 mg/kg/injection, schedule: Q01DX009 (ip), vehicle: other) 106 % of control; (endpoint: mean survival time, dose: 200.0 mg/kg/injection, schedule: Q01DX009 (ip), vehicle: other) 100 % of control; (endpoint: mean survival time, dose: 400.0 mg/kg/injection, schedule: Q01DX009 (ip), vehicle: other) 95 % of control.
Consider `CCOC(=O)CC1(c2ccccc2)OC(=O)c2ccccc21` (stereo not drawn), for which the T/C reads like this: under setting [9], 102 % of control; under setting [10], 87 % of control; under setting [11], 87 % of control.
For the molecule `Nc1nc2c(ncn2-c2ccc(OCCNC(=O)Nc3ccc(S(=O)(=O)F)cc3)cc2)c(=O)[nH]1`, the T/C by setting is: under setting [12], 95 % of control; under setting [13], 94 % of control; under setting [14], 94 % of control.
For the molecule `O=c1[nH]ccn1C1CCCCC1`, the T/C is 100 % of control (endpoint: mean survival time, dose: 50.0 mg/kg/injection, schedule: Q01DX001 (ip), vehicle: other); 96 % of control and 97 % of control (endpoint: mean survival time, dose: 100.0 mg/kg/injection, schedule: Q01DX001 (ip), vehicle: other); 97 % of control and 100 % of control (endpoint: mean survival time, dose: 200.0 mg/kg/injection, schedule: Q01DX001 (ip), vehicle: other).
As for `CCC(C=O)(CC)CCC#N`, the T/C was 96 % of control (endpoint: mean survival time, dose: 25.0 mg/kg/injection, schedule: Q01DX001 (ip), vehicle: Klucel (hydroxypropylcellulose) (HPC)); 103 % of control (endpoint: mean survival time, dose: 50.0 mg/kg/injection, schedule: Q01DX001 (ip), vehicle: Klucel (hydroxypropylcellulose) (HPC)); 87 % of control (endpoint: mean survival time, dose: 100.0 mg/kg/injection, schedule: Q01DX001 (ip), vehicle: Klucel (hydroxypropylcellulose) (HPC)); 103 % of control under setting [12]; 100 % of control under setting [13]; 100 % of control under setting [14].
With `Cc1ccc(C2c3c(nc[nH]c3=O)OC2(C)C)cc1` (stereo not drawn), the T/C reads like this: under setting [9], 114 % of control; under setting [10], 106 % of control; under setting [11], 111 % of control.
For the molecule `Nc1nc(N)c2nc(CNc3ccc(C(=O)NC(CCC(=O)O)C(=O)O)cc3)cnc2n1` (stereo not drawn), the T/C runs as follows: (endpoint: mean survival time, dose: 0.2 mg/kg/injection, schedule: Q01DX009 (ip), vehicle: alkali diluted with saline) 150 % of control; (endpoint: mean survival time, dose: 0.3 mg/kg/injection, schedule: Q01DX009 (ip), vehicle: alkali diluted with saline) 156 % of control; (endpoint: mean survival time, dose: 0.44 mg/kg/injection, schedule: Q01DX009 (ip), vehicle: alkali diluted with saline) 174 % of control; (endpoint: mean survival time, dose: 0.67 mg/kg/injection, schedule: Q01DX009 (ip), vehicle: alkali diluted with saline) 166 % of control; (endpoint: mean survival time, dose: 0.7 mg/kg/injection, schedule: Q01DX009 (ip), vehicle: alkali diluted with saline) 118 % of control; (endpoint: mean survival time, dose: 1.0 mg/kg/injection, schedule: Q01DX009 (ip), vehicle: alkali diluted with saline) 114 % of control. For the same molecule, the T/C by setting is: (endpoint: mean survival time, dose: 1.1 mg/kg/injection, schedule: Q01DX009 (ip), vehicle: alkali diluted with saline) 96 % of control; (endpoint: mean survival time, dose: 1.5 mg/kg/injection, schedule: Q01DX009 (ip), vehicle: alkali diluted with saline) 104 % of control; (endpoint: mean survival time, dose: 1.7 mg/kg/injection, schedule: Q01DX009 (ip), vehicle: alkali diluted with saline) 86 % of control.
Consider `CC(=O)Oc1cccc2c1C(=O)C1(O)C(C=O)=CC3OC(C)(C)OC2(C)C31` (stereo not drawn), for which the T/C (endpoint: mean survival time, dose: 75.0 mg/kg/injection, schedule: Q01DX001 (ip), vehicle: other) is 102 % of control; the T/C (endpoint: mean survival time, dose: 150.0 mg/kg/injection, schedule: Q01DX001 (ip), vehicle: other) is 108 % of control; the T/C (endpoint: mean survival time, dose: 300.0 mg/kg/injection, schedule: Q01DX001 (ip), vehicle: other) is 103 % of control.
Regarding `CCCCN(CCCC)CC(O)c1cc(-c2cc(C(O)CN(CCCC)CCCC)c3ccccc3n2)nc2ccccc12` (stereo not drawn), the T/C is 95 % of control under setting [6] and 86 % of control under setting [7].
Take `Cc1cc(N=CN(C)C)c2ccccc2n1`: the T/C by setting is: (endpoint: mean survival time, dose: 3.12 mg/kg/injection, schedule: Q01DX009 (ip), vehicle: other) 106 % of control; (endpoint: mean survival time, dose: 6.25 mg/kg/injection, schedule: Q01DX009 (ip), vehicle: other) 100 % of control; (endpoint: mean survival time, dose: 12.5 mg/kg/injection, schedule: Q01DX009 (ip), vehicle: other) 100 % of control; (endpoint: mean survival time, dose: 25.0 mg/kg/injection, schedule: Q01DX009 (ip), vehicle: other) 106 % of control and 107 % of control.
In the case of `O=C1CC(CO)CN1CCc1ccccc1` (stereo not drawn), the T/C (endpoint: mean survival time, dose: 100.0 mg/kg/injection, schedule: Q01DX009 (ip), vehicle: saline with Tween-80) was 96 % of control; the T/C (endpoint: mean survival time, dose: 200.0 mg/kg/injection, schedule: Q01DX009 (ip), vehicle: saline with Tween-80) was 92 % of control; the T/C (endpoint: mean survival time, dose: 400.0 mg/kg/injection, schedule: Q01DX009 (ip), vehicle: saline with Tween-80) is 95 % of control.
Turning to `CN(C)C(=O)c1cc[n+](Cc2ccc(Cl)c(Cl)c2)cc1`, the T/C by setting is: (endpoint: mean survival time, dose: 25.0 mg/kg/injection, schedule: Q01DX009 (ip), vehicle: saline) 98 % of control; under setting [4], 121 % of control; under setting [5], 89 % of control.
Consider `COc1cccc2c1C(=O)c1c(O)c3c(c(O)c1C2=O)C[C@@](O)(C(O)CO)C[C@@H]3OC1CC(N(Cc2ccccc2)Cc2ccccc2)C(O)C(C)O1` (stereo partly drawn), for which the T/C (endpoint: median survival time, dose: 6.25 mg/kg/injection, schedule: Q01DX009 (ip), vehicle: water) is 122 % of control.
On to `O=C(CC(CC(=O)C(c1ccccc1)c1ccccc1)c1ccccc1)C(c1ccccc1)c1ccccc1`, for which the T/C (endpoint: mean survival time, dose: 12.5 mg/kg/injection, schedule: Q04DX002 (ip), vehicle: saline with Tween-80) is 93 % of control; the T/C under setting [15] is 90 % of control; the T/C under setting [7] is 86 % of control; the T/C under setting [8] is 86 % of control.
As to `CCOC(=O)CCCSc1nn(C2OC(COC(=O)c3ccccc3)C(OC(=O)c3ccccc3)C2OC(=O)c2ccccc2)c(=O)[nH]c1=O` (stereo not drawn), the T/C by setting is: (endpoint: mean survival time, dose: 12.5 mg/kg/injection, schedule: Q01DX005 (ip), vehicle: distilled water + Tween-80) 93 % of control; (endpoint: mean survival time, dose: 25.0 mg/kg/injection, schedule: Q01DX005 (ip), vehicle: distilled water + Tween-80) 90 % of control; (endpoint: mean survival time, dose: 50.0 mg/kg/injection, schedule: Q01DX005 (ip), vehicle: distilled water + Tween-80) 93 % of control; (endpoint: mean survival time, dose: 100.0 mg/kg/injection, schedule: Q01DX005 (ip), vehicle: distilled water + Tween-80) 88 % of control; (endpoint: mean survival time, dose: 200.0 mg/kg/injection, schedule: Q01DX005 (ip), vehicle: distilled water + Tween-80) 92 % of control.
Take `CCc1cccc(CC)c1NC(N)=S`: the T/C runs as follows: under setting [15], 108 % of control; (endpoint: mean survival time, dose: 50.0 mg/kg/injection, schedule: Q04DX002 (ip), vehicle: saline with Tween-80) 97 % of control; under setting [9], 101 % of control.
